According to publication PMC6099940, “Design, Synthesis and Biological Evaluation of Novel Phenylsulfonylurea Derivatives as PI3K/mTOR Dual Inhibitors” (Molecules : A Journal of Synthetic Chemistry and Natural …, 2018):
Where two headings read alike, the source gives them in different places.

How the values were obtained:
PC-3 = assay: In vitro cytotoxicity, MTT assay, PC-3; assay type: cell-based; conditions: PC-3 cells, 72 h, average of two separate determinations
A549 = assay: In vitro cytotoxicity, MTT assay, A549; assay type: cell-based; conditions: A549 cells, 72 h, average of two separate determinations
MCF-7 = assay: In vitro cytotoxicity, MTT assay, MCF-7; assay type: cell-based; conditions: MCF-7 cells
HepG-2 = assay: In vitro cytotoxicity, MTT assay, HepG-2; assay type: cell-based; conditions: 72 h, average of two separate determinations
mTOR = mTOR (Homo sapiens, UniProt P42345); assay: mTOR kinase assay (Kinase-Glo Luminescent Kinase Assay); assay type: biochemical; conditions: 10 µM ATP, 60 min, average of two determinations
PI3Kα = PI3Kα (Homo sapiens, UniProt P42336); assay: PI3Kα kinase assay (Kinase-Glo Luminescent Kinase Assay); assay type: biochemical; conditions: 1 µM ATP, 60 min, average of two determinations
PI3Kα, sequence (P42336 whole entry): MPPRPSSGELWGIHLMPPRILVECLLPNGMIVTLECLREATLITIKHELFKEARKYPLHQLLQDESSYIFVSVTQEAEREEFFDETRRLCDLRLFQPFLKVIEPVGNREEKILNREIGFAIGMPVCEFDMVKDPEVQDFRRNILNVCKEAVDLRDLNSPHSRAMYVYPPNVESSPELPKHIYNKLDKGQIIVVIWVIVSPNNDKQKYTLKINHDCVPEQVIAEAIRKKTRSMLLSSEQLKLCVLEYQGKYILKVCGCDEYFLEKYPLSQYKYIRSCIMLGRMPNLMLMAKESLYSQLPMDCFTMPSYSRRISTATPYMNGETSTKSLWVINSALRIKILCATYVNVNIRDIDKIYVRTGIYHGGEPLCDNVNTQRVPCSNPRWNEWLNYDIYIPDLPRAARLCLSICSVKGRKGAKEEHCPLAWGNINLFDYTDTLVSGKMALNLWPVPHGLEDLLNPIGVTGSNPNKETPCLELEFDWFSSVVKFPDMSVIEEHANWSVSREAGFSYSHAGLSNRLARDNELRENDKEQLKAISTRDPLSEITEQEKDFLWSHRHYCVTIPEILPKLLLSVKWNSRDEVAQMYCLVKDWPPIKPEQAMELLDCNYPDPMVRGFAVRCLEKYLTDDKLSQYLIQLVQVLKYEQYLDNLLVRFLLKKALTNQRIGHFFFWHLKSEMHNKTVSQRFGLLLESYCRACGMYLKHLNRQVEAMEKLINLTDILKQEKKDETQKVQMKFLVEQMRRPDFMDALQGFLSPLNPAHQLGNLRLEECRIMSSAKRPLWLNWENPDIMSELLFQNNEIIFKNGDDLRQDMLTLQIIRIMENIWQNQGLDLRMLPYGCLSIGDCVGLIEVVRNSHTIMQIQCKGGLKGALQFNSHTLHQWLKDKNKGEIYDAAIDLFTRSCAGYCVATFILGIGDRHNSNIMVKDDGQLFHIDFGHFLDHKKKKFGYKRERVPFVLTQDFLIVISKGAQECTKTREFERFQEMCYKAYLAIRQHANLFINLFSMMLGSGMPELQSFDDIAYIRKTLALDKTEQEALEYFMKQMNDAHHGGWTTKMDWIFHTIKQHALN
PI3Kα, sequence (P27986 whole entry partner): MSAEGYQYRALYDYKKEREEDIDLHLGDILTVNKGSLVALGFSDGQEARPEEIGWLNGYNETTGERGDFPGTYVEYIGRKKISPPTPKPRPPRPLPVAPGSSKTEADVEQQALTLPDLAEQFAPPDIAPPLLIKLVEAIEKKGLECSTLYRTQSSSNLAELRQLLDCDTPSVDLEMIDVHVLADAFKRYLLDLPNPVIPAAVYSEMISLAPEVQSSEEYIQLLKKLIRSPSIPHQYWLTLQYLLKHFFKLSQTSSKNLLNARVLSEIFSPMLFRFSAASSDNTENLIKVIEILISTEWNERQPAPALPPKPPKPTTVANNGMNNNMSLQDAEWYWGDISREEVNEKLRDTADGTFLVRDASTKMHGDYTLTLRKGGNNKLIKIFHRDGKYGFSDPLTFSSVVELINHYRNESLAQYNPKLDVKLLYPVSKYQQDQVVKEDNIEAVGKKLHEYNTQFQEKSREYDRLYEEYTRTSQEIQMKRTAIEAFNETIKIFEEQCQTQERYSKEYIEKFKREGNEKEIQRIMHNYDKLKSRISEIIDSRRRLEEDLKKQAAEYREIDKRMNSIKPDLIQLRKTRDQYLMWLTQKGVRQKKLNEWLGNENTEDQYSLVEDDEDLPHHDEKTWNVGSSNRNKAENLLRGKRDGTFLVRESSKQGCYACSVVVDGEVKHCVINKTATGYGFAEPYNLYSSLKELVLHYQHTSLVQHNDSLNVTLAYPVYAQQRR

[1] = Homo sapiens, MCF7, MTT, 72 h, average of two separate determinations, read-out: IC50 (µM) MCF-7
[2] = Homo sapiens, HepG2, HepG-2 cells

| melting point [°C] | IC50 (mTOR) [µM] | IC50 (PI3Kα) [µM] | Structure (SMILES) | IC50 (PC-3; Homo sapiens) [µM] | IC50 (A549; Homo sapiens) [µM] | IC50 (MCF-7; [1]) [µM] | IC50 (HepG-2; [2]) [µM] | IC50 (PC-3) [µM] | IC50 (A549) [µM] | IC50 (MCF-7; MTT, 72 h, average of two separate determinations, read-out: IC50 (µM) MCF-7) [µM] | IC50 (MCF-7; read-out: IC50 value against MCF-7 cell (conclusions text, unit inferred)) [µM] | IC50 (HepG-2; HepG-2 cells) [µM] |
| --- | --- | --- | --- | --- | --- | --- | --- | --- | --- | --- | --- | --- |
| 259.4 to 260.3 |  |  | CC(C)(C)c1ccc(S(=O)(=O)NC(=O)Nc2cnc3ccc(Br)cc3c2Nc2ccc(Br)cc2)cc1 [21d, N-((6-Bromo-4-((4-bromophenyl)amino)quinolin-3-yl)carbamoyl)-4-(tert-butyl)benzenesulfonamide] | > 100 | 16.2 ± 1.2 | 52.7 ± 1.72 | 17 ± 1.22 |  |  |  |  |  |
| 291.2 to 292.7 | > 10 | > 10 | COc1ccc(Nc2c(NC(=O)NS(=O)(=O)c3ccc(C(C)(C)C)cc3)c(C)nc3ccc(OC)cc23)cc1 [23b, 4-(tert-Butyl)-N-((6-methoxy-4-((4-methoxyphenyl)amino)-2-methylquinolin-3-yl)carbamoyl)benzenesulfonamide] | > 100 | 7.47 ± 0.87 | 6.55 ± 0.81 | 2.71 ± 0.43 |  |  |  |  |  |
| 356.1 to 357.3 |  |  | COc1ccc2nc(C)c(NC(=O)NS(=O)(=O)c3ccc(F)cc3)c(Nc3ccc(Br)cc3)c2c1 [23c, N-((4-((4-Bromophenyl)amino)-6-methoxy-2-methylquinolin-3-yl)carbamoyl)-4-fluorobenzenesulfonamide] | 39.8 ± 1.25 | 13 ± 0.84 | 25.4 ± 1.43 | 32.1 ± 1.12 |  |  |  |  |  |
| 290.8 to 291.2 |  |  | COc1ccc(Nc2c(NC(=O)NS(=O)(=O)c3ccc(Cl)cc3)c(C)nc3ccc(OC)cc23)cc1 [23a, 4-Chloro-N-((6-methoxy-4-((4-methoxyphenyl)amino)-2-methylquinolin-3-yl)carbamoyl)benzenesulfonamide] | > 100 | 39.8 ± 1.59 | 6.3 ± 0.79 | 16 ± 1.1 |  |  |  |  |  |
| 282.3 to 283.7 |  |  | O=C(Nc1cnc2ccc(Br)cc2c1Nc1ccc(F)c(Cl)c1)NS(=O)(=O)c1ccc(Cl)cc1 [22b, N-((6-Bromo-4-((3-chloro-4-fluorophenyl)amino)quinolin-3-yl)carbamoyl)-4-chlorobenzenesulfonamide] | 17.7 ± 0.95 | > 100 | 6.84 ± 0.83 | 6.44 ± 0.89 |  |  |  |  |  |
| 278.7 to 279.5 |  |  | O=C(Nc1cnc2ccc(Br)cc2c1Nc1ccc(Br)cc1)NS(=O)(=O)c1ccc(F)cc1 [21a, N-((6-Bromo-4-((4-bromophenyl)amino)quinolin-3-yl)carbamoyl)-4-fluorobenzenesulfonamide] | > 100 | 59 ± 1.76 | 37.6 ± 1.57 | 45.7 ± 1.66 |  |  |  |  |  |
| 285.3 to 286.1 |  |  | COc1ccc2nc(C)c(NC(=O)NS(=O)(=O)c3ccc(F)cc3)c(Nc3ccc(F)c(Cl)c3)c2c1 [23d, N-((4-((3-Chloro-4-fluorophenyl)amino)-6-methoxy-2-methylquinolin-3-yl)carbamoyl)-4-fluorobenzenesulfonamide] | 57.9 ± 0.99 | 38.1 ± 0.96 | 57 ± 1.75 | 6.08 ± 1.04 |  |  |  |  |  |
| 295.1 to 296.3 |  |  | O=C(Nc1cnc2ccc(Br)cc2c1Nc1ccc(F)c(Cl)c1)NS(=O)(=O)c1ccc(F)cc1 [22a, N-((6-Bromo-4-((3-chloro-4-fluorophenyl)amino)quinolin-3-yl)carbamoyl)-4-fluorobenzenesulfonamide] | 52.5 ± 1.03 | 12 ± 0.91 | 22.8 ± 1.35 | 19.63 ± 0.18 |  |  |  |  |  |
| 278.7 to 279.9 |  |  | Cc1ccc(S(=O)(=O)NC(=O)Nc2cnc3ccc(Br)cc3c2Nc2ccc(F)c(Cl)c2)cc1 [22c, N-((6-Bromo-4-((3-chloro-4-fluorophenyl)amino)quinolin-3-yl)carbamoyl)-4-methylbenzenesulfonamide] | 16.7 ± 0.88 | > 100 | 16.8 ± 1.22 | 11.3 ± 0.84 |  |  |  |  |  |
| 279.6 to 280.2 |  |  | Cc1ccc(S(=O)(=O)NC(=O)Nc2cnc3ccc(Br)cc3c2Nc2ccc(Br)cc2)cc1 [21c, N-((6-Bromo-4-((4-bromophenyl)amino)quinolin-3-yl)carbamoyl)-4-methylbenzenesulfonamide] | > 100 | 22.7 ± 1.35 | 16.6 ± 1.22 | 31.1 ± 1.49 |  |  |  |  |  |
| 290.1 to 291.6 |  |  | CC(C)(C)c1ccc(S(=O)(=O)NC(=O)Nc2cnc3ccc(Br)cc3c2Nc2ccc(F)c(Cl)c2)cc1 [22d, N-((6-Bromo-4-((3-chloro-4-fluorophenyl)amino)quinolin-3-yl)carbamoyl)-4-(tert-butyl)benzenesulfonamide] | 29.3 ± 2.23 | 22.4 ± 1.21 | 46.3 ± 1.67 | 28.4 ± 0.89 |  |  |  |  |  |
| 284.1 to 285.4 |  |  | O=C(Nc1cnc2ccc(Br)cc2c1Nc1ccc(Br)cc1)NS(=O)(=O)c1ccc(Cl)cc1 [21b, N-((6-Bromo-4-((4-bromophenyl)amino)quinolin-3-yl)carbamoyl)-4-chlorobenzenesulfonamide] | > 100 | 71.1 ± 1.85 | 13.8 ± 1.14 | 11.1 ± 1.04 |  |  |  |  |  |

Continued, compound first:

| Structure (SMILES) | melting point [°C] | IC50 (mTOR) [µM] | IC50 (PI3Kα) [µM] | IC50 (PC-3; Homo sapiens) [µM] | IC50 (A549; Homo sapiens) [µM] | IC50 (MCF-7; [1]) [µM] | IC50 (HepG-2; [2]) [µM] | IC50 (PC-3) [µM] | IC50 (A549) [µM] | IC50 (MCF-7; MTT, 72 h, average of two separate determinations, read-out: IC50 (µM) MCF-7) [µM] | IC50 (MCF-7; read-out: IC50 value against MCF-7 cell (conclusions text, unit inferred)) [µM] | IC50 (HepG-2; HepG-2 cells) [µM] |
| --- | --- | --- | --- | --- | --- | --- | --- | --- | --- | --- | --- | --- |
| COc1ccc(Nc2c(NC(=O)NS(=O)(=O)c3ccc(C)cc3)cnc3ccc(Br)cc23)cc1 [20c, N-((6-Bromo-4-((4-methoxyphenyl)amino)quinolin-3-yl)carbamoyl)-4-methylbenzenesulfonamide] | 279.2 to 280.6 |  |  | > 100 | 23.4 ± 1.12 | 4.94 ± 0.64 | 26.8 ± 1.22 |  |  |  |  |  |
| COc1ccc(Nc2c(NC(=O)NS(=O)(=O)c3ccc(C(C)(C)C)cc3)cnc3ccc(Br)cc23)cc1 [20d, N-((6-Bromo-4-((4-methoxyphenyl)amino)quinolin-3-yl)carbamoyl)-4-(tert-butyl)benzenesulfonamide] | 263.3 to 264.2 |  |  | > 100 | 32.1 ± 1.18 | 10.5 ± 0.98 | 33.2 ± 1.26 |  |  |  |  |  |
| COc1ccc(Nc2c(NC(=O)NS(=O)(=O)c3ccc(F)cc3)cnc3ccc(Br)cc23)cc1 [20a, N-((6-Bromo-4-((4-methoxyphenyl)amino)quinolin-3-yl)carbamoyl)-4-fluorobenzenesulfonamide] | 289.1 to 290.2 |  |  | > 100 | 26.3 ± 1.13 | 7.65 ± 0.88 | 20.3 ± 1.04 |  |  |  |  |  |
| Cc1ccc(S(=O)(=O)NC(=O)Nc2cnc3ccc(Br)cc3c2Nc2ccc(C(C)(C)C#N)cc2)cc1 [19c, N-((6-Bromo-4-((4-(2-cyanopropan-2-yl)phenyl)amino)quinolin-3-yl)carbamoyl)-4-methylbenzenesulfonamide] | 289.2 to 290.4 |  |  | 40.6 ± 1.11 | 29 ± 1.31 | 3.96 ± 0.59 | 31.2 ± 1.5 |  |  |  |  |  |
| CC(C)(C#N)c1ccc(Nc2c(NC(=O)NS(=O)(=O)c3ccc(F)cc3)cnc3ccc(Br)cc23)cc1 [19a, N-((6-Bromo-4-((4-(2-cyanopropan-2-yl)phenyl)amino)quinolin-3-yl)carbamoyl)-4-fluorobenzenesulfonamide carboxamide] |  | 2.62 | 0.72 |  |  |  |  | 66.6 ± 1.28 | 38.5 ± 1.04 | 3.88 ± 0.58 | 2.88 ± 0.58 | 33.3 ± 1.52 |
| COc1ccc(Nc2c(NC(=O)NS(=O)(=O)c3ccc(Cl)cc3)cnc3ccc(Br)cc23)cc1 [20b, N-((6-Bromo-4-((4-methoxyphenyl)amino)quinolin-3-yl)carbamoyl)-4-chlorobenzenesulfonamide] | 282.2 to 283.1 |  |  | > 100 | 30.2 ± 1.23 | 10.7 ± 0.97 | 22.6 ± 1.12 |  |  |  |  |  |
| CC(C)(C)c1ccc(S(=O)(=O)NC(=O)Nc2cnc3ccc(Br)cc3c2Nc2ccc(C(C)(C)C#N)cc2)cc1 [19d, N-((6-Bromo-4-((4-(2-cyanopropan-2-yl)phenyl)amino)quinolin-3-yl)carbamoyl)-4-(tert-butyl)benzenesulfonamide] | 287.2 to 288.4 |  |  | 68.2 ± 1.32 | 30.6 ± 1.45 | 9.95 ± 0.99 | > 100 |  |  |  |  |  |
| CC(C)(C#N)c1ccc(Nc2c(NC(=O)NS(=O)(=O)c3ccc(Cl)cc3)cnc3ccc(Br)cc23)cc1 [19b, N-((6-Bromo-4-((4-(2-cyanopropan-2-yl)phenyl)amino)quinolin-3-yl)carbamoyl)-4-chlorobenzenesulfonamide] | 279.2 to 280.1 |  |  | 34.3 ± 1.32 | > 100 | 15.1 ± 1.1 | 30.2 ± 1.45 |  |  |  |  |  |
| Cn1c(=O)n(-c2ccc(C(C)(C)C#N)cc2)c2c3cc(-c4cnc5ccccc5c4)ccc3ncc21 [NVP-BEZ235, reference compound] |  |  |  | 0.2 ± 0.11 | 0.36 ± 0.86 | 0.14 ± 0.1 | 0.54 ± 0.83 |  |  |  |  |  |
